Experimental data: patent US8198252B2, “SIRNA inhibition of PI3K P85, P110, and AKT2 and methods of use” (Board of Regents, The University of Texas System, priority 2006, dated 2012)

Key:
HT29-GFP cells = assay: Liver metastasis establishment by cells transfected with siRNA in vitro; type: in vivo, mice; conditions: three weeks
Description: (§1) In Vivo Experiments. For in vivo studies, 4- to 6-week-old male nude^nu/nu mice were obtained from Harlan Sprague Dawley (Indianapolis, Ind.) and housed in clean, pathogen-free rooms in an environment with controlled temperature (22° C.), humidity, and a 12 hours light/dark cycle. The mice were fed standard chow (Formula Chow 5008; Purina Mills, St. Louis, Mo.) and tap water ad libitum and allowed to acclimate for 1 week. All studies were approved by the Institutional Animal Care and Use Committee of UTMB. Tumor cells were injected intrasplenically by methods previously described (Bruns et al., Neoplasia, 1:50-62 (1999)). Briefly, mice were anesthetized with halothane, a small left abdominal flank incision was created, and the spleen was exteriorized. Transfectants were harvested using only trypsin and resuspended as a single-cell suspension in Hanks Balanced Salt Solution, free of Mg^2+ and Ca^2+. Tumor cells (5×10^6 cells/400 μL) were injected into the spleen with a 27-gauge needle. The spleen was returned to the abdomen, and the wound was closed in one layer with wound clips. The mice were observed over the indicated time period using the Illumatool TLS (Lightools Research, Encinitas, Calif.). Animals were randomized into 3 experimental groups (5 animals per group) to receive p85α, p110α, or NTC siSTABLE siRNA (20 μg/mice, qod) by hydrodynamic tail vein injection (Watanabe et al., Gastroenterology, 128:1391-1404 (2005)) 24 hours after operation; mice were killed 35 days later. Experiments were performed in duplicate.
(§2) Methods of cells transfection and liver metastasis establishment are described in Example 1.
(§3) Akt2 is essential for colorectal cancer metastasis establishment. To determine whether Akt2 plays a causal role in colorectal cancer metastasis, we tested whether inhibition of Akt2 expression in the highly metastatic colorectal cancer cells would affect their metastatic ability. HT29^GFP or KM20^GFP cells were transfected with NTC (purchased from Dharmacon Inc.) or Akt2 siRNA (GUACUUCGAUGAUGAAUUU, SEQ ID NO:20) in vitro and inoculated intrasplenically (5×10^6) 60 hours later. To avoid intrasplenic tumor growth, the spleen was removed after 24 h. Animals were monitored individually for metastatic tumor growth using the Illumatool TLS. Three weeks after implantation the mice were sacrificed and the liver was examined for metastatic lesions by inspection of GFP fluorescence. […] In addition, the sizes of individual metastatic nodules present in the liver of both groups of mice were very similar. […] We also suspect that incomplete suppression of Akt2 by siRNA in a small subset of cells account for the residual ability of such cells to form liver metastasis.

KM20-GFP cells = assay: as above; type: in vivo, mice; conditions: three weeks
Description: as §1, §2, §3

Akt2 = assay: Western blot of Akt2 in the cells used for intrasplenic inoculation; type: cell-based, human; conditions: before (0 h) or after (2 h) surgical procedure
Description: Protein Preparation and Western Immunoblot. Western immunoblot analyses were performed as described previously (Wang et al., Clin Cancer Res. 8:1940-1947 (2002)). Cells were lysed with TNN buffer at 4° C. for 30 minutes. Lysates were clarified by centrifugation (10,000 g for 30 minutes at 4° C.) and protein concentrations determined using the method of Bradford (Bradford, Anal Biochem., 72:248-254 (1976)). Briefly, total protein (60 μg) was resolved on a 10% polyacrylamide gel and transferred to Immobilon-P […] membranes. Filters were incubated overnight at 4° C. in blotting solution (Tris-buffered saline containing 5% nonfat dried milk and 0.1% Tween 20), followed by a 1-hour incubation with primary antibodies. Filters were washed 3 times in a blocking solution and incubated with horseradish peroxidase-conjugated secondary antibodies for 1 hour. After 3 additional washes, the immune complexes were visualized by ECL detection.
Akt2 is essential for colorectal cancer metastasis establishment. […] Animals were monitored individually for metastatic tumor growth using the Illumatool TLS. Three weeks after implantation the mice were sacrificed and the liver was examined for metastatic lesions by inspection of GFP fluorescence. […]

[1] = 5×10^6 intrasplenically 60 hours later, compared with NTC siRNA

In the case of GUACUUCGAUGAUGAAUUU [Akt2 siRNA], the “macroscopically visible metastases in the liver” value (HT29-GFP cells; [1]) is reported as “formed very few metastases”, the “number of micrometastatic lesions in the liver (histological analysis)” value (HT29-GFP cells) is reported as “drastically reduced” and the “sizes of individual metastatic nodules in the liver, compared with NTC group” value (HT29-GFP cells) is reported as “very similar”. For the same sequence, the “macroscopically visible metastases in the liver” value (KM20-GFP cells; [1]) was “formed very few metastases”, the “number of micrometastatic lesions in the liver (histological analysis)” value (KM20-GFP cells) was “drastically reduced” and the “sizes of individual metastatic nodules in the liver, compared with NTC group” value (KM20-GFP cells) was “very similar”. For the same sequence, the Akt2 expression (Akt2; HT29-GFP cells used for intrasplenic inoculation) was “confirmed Akt2 downregulation” and the Akt2 expression (Akt2; KM20-GFP cells used for intrasplenic inoculation) was “confirmed Akt2 downregulation”.
